Source: patent US4272540A, “14-Methoxymorphinan-6-one compounds and therapeutic methods of treating pain and drug dependence with them” (SISA, Incorporated, priority 1979, dated 1981)
Counter-ions that a name gives are not always drawn. Like-named read-outs stand apart in the source and are kept apart here.

Legend:
[1] = system: mice; experiment: Test A: acetic acid mouse writhing test (analgesic effects); format: in vivo, male CD-1 mice; settings: for ED50: Mus musculus, sc
Experimental: (A) Analgesic effects upon mice (acetic acid writhing test).
(§1) The analgesic effects of test compounds were determined in mice by use of the acetic acid writhing test described by B. J. R. Whittle, Brit. J. Pharmacol., 22:296 (1964). In this test at least three groups of five male CD-1 mice each were given subcutaneous doses of the test drug dissolved in either distilled water or distilled water acidified with HCl depending on the solubility of the compound. In all cases, 0.4 milliliter of a 0.5% V/V acetic acid in distilled water solution was administered intraperitoneally 15 minutes post drug. The number of writhes in a 20 minute interval beginning 5 minutes after the acetic acid injection were determined and compared with the number of writes in control groups which had received only acetic acid.
Percent inhibition of writhing was calculated as: [formula]
(§2) The ED50 dose, i.e., the dose required to reduce the number of writhes by 50%, was determined graphically from a plot of % inhibition as a probit versus log dose. Confidence limits of 95% were calculated on the basis of those results falling in the range 16-84% inhibition. See Litchfield, J. T. and Wilcoxon, F., J. Pharmacol. Exp. Ther., 96, 99-113, (1949).
(§3) The results of these experiments are set out in Table I where R, R1 and R2 refer to the proceeding general formula for the compounds of the present invention. In the column under R2 CBM stands for cyclobutylmethyl, CPM for cyclopropylmethyl, THF for tetrahydrofurfuryl and DMA for dimethylallyl.

[2] = system: rats; experiment: Test B: narcotic antagonist activity (modified rat tail flick test, morphine antagonism); format: in vivo, male albino Wistar rats; parameters: key to AD50 (Test B): inactive at dose stated: IA is intended to mean "inactive"; settings: for ED50: Rattus norvegicus; for AD50 (Test B): inactive at dose stated: at 10 mg/kg, interperitoneally
Experimental: (B) Narcotic antagonist activity in rats (modified rat tail flick test).
The narcotic antagonist effects of test compounds were determined by a modification of the rat tail flick procedure of Harris and Pierson (J. Pharmacol. Exp. Ther. 143:141[1964]).
(§4) Male albino Wistar rats (100-120 g) were used for this study. A rat's tail is so placed so as to cover a photocell. Heat is applied by a lamp in a reflector with a timer being connected to the lamp and photocell so that the timer goes on when the light is turned on and is turned off when the photocell is uncovered. A rheostat, incorporated into a heating lamp is used to adjust the intensity of the light falling on the tail of the rat such that the rat's control reaction time is from two to four seconds. Animals with a control reaction time outside this range are rejected. The rheostat adjustment is made only if a significant proportion (more than 2 out of every 10 rats) of the reaction times are outside the range of two to four seconds. Groups of five rats were used each time, and two control times were determined at 60 and 30 minutes prior to subcutaneous injection of the drug.
(§5) Thirty minutes after the last control run the test drug was given interperitoneally. This was followed ten minutes later by an ED80 dose of morphine subcutaneously. The animals were retested at 20 minutes after the morphine injection. Control animals were given vehicle and morphine only. The data were calculated as follows: [formula]
(§6) The data were plotted on log-probit paper and AD50 values, i.e., the dose required to inhibit the morphine effect by 50% within 95% condidence limits, were determined by the method of Litchfield and Wilcoxon.
as §3

[3] = Overall agonist/antagonist classification from Table I (Tests A and B); format: in vivo, mice (Test A); rats (Test B); settings: from ED50 and AD50 values of Table I
Experimental: as §1, §2, §4, §5, §6

[4] = prior art report; cited from earlier work
[5] = sc, rats, tail flick, drug interperitoneally 10 min before ED80 morphine s.c., dose inhibiting morphine effect by 50%, read-out: AD50 (Test B, narcotic antagonist activity)
[6] = subcutaneous, 15 min before acetic acid, dose reducing writhes by 50%, read-out: ED50 (Test A, acetic acid mouse writhing test)
[7] = rats, tail flick, drug interperitoneally 10 min before ED80 morphine s.c., dose inhibiting morphine effect by 50%

Row | Structure (SMILES) | ED50 [2, 5] [mg/kg] | agonist/antagonist profile [3] | ED50 [1, 6] [mg/kg] | AD50 (Test B): inactive at dose stated ([2]; rats, tail flick vs morphine) | other results
1 | COc1ccc2c(c1)[C@]13CCN(CC4CC4)[C@H](C2)[C@]1(OC)[C@@H](C)CC(=O)C3.Cl [TR-5209, 17-Cyclopropylmethyl-3,14-dimethoxy-8β-methylmorphinan-6-one Hydrochloride] | 0.45 | pure narcotic antagonists | – | – | ED50 (Test A): inactive at dose stated ([1]; at 13 mg/kg, subcutaneous): IA (IA is intended to mean "inactive")
2 | CO[C@@]12[C@@H](C)CC(=O)C[C@@]13CCN(CC1CC1)[C@@H]2Cc1ccc(O)cc13.Cl [TR-5210, 17-Cyclopropylmethyl-3-hydroxy-14-methoxy-8β-methylmorphinan-6-one Hydrochloride] | 0.004 | – | 30 | – | ED50 ([2]; rats, tail flick vs morphine, unit inferred, read-out: AD50 (the source's name)): 0.004 mg/kg; potency as narcotic antagonist relative to naloxone ([2]; naloxone as comparator): 10 times; agonist/antagonist profile ([3]; Hydrochloride): pure narcotic antagonist
3 | COc1ccc2c(c1)[C@]13CCN(CC4CCC4)[C@H](C2)[C@]1(OC)[C@@H](C)CC(=O)C3.Cl [TR-5211, 17-Cyclobutylmethyl-3,14-dimethoxy-8β-methylmorphinan-6-one Hydrochloride] | 0.41 | pure narcotic antagonists | – | – | ED50 (Test A): inactive at dose stated ([1]; at 10 mg/kg, subcutaneous): IA (IA is intended to mean "inactive")
4 | CO[C@@]12[C@@H](C)CC(=O)C[C@@]13CCN(CC1CCC1)[C@@H]2Cc1ccc(O)cc13 [TR-5212, 17-Cyclobutylmethyl-3-hydroxy-14-methoxy-8β-methylmorphinan-6-one Hydrochloride] | 0.18 | pure narcotic antagonists | – | – | ED50 (Test A): inactive at dose stated ([1]; at 10 mg/kg, subcutaneous): IA (IA is intended to mean "inactive")
5 | COc1ccc2c(c1)[C@]13CCN(CC4CCC4)[C@H](C2)[C@]1(OC)[C@H](C)CC(=O)C3.Cl [TR-5219, 17-Cyclobutylmethyl-3,14-dimethoxy-8α-methylmorphinan-6-one Hydrochloride] | – | – | 15.1 | IA | ED50 ([1]; writhing, unit inferred, read-out: ED50 value): 15.1 mg/kg; analgesic activity (in words) ([1]; writhing): only a weak analgesic; narcotic antagonist activity (in words) ([2]; rats, tail flick vs morphine): not a narcotic antagonist
6 | CO[C@@]12[C@H](C)CC(=O)C[C@@]13CCN(CC1CCC1)[C@@H]2Cc1ccc(O)cc13 [TR-5249, 17-Cyclobutylmethyl-3-hydroxy-14-methoxy-8α-methylmorphinan-6-one] | 3 | – | 0.14 | – | –
7 | CO[C@@]12[C@@H](C)CC(O)C[C@@]13CCN(CC1CC1)[C@@H]2Cc1ccc(O)cc13 (stereo partly drawn) [TR-5250, 17-Cyclopropylmethyl-14-methoxy-8β-methylmorphinan-3,6-diol Hydrochloride] | 0.32 | – | – | – | ED50 (Test A): inactive at dose stated ([1]; at 10 mg/kg, subcutaneous): IA (IA is intended to mean "inactive"); less active as narcotic antagonist than TR-5210 ([2]; rats, tail flick vs morphine, compared with TR-5210): ~2 orders of magnitude
8 | CO[C@@]12[C@H](C)CC(=O)C[C@@]13CCN(CC1CC1)[C@@H]2Cc1ccc(O)cc13.Cl [TR-5284, 17-Cyclopropylmethyl-3-hydroxy-14-methoxy 8α-methylmorphinan-6-one Hydrochloride] | < 3 | pure narcotic antagonists | – | – | ED50 (Test A): inactive at dose stated ([1]; at 10 mg/kg, subcutaneous): IA (IA is intended to mean "inactive"); narcotic antagonist activity (in words) ([2]; rats, tail flick vs morphine): is a narcotic antagonist
9 | CO[C@@]12[C@H](C)CC(O)C[C@@]13CCN(CC1CC1)[C@@H]2Cc1ccc(O)cc13.Cl (stereo partly drawn) [TR-5285, 17-Cyclopropylmethyl-14-methoxy-8α-methylmorphinan-3,6-diol Hydrochloride] | > 10 | not active as an analgesic or a narcotic antagonist | > 10 | – | –
10 | COc1ccc2c(c1)[C@]13CCN(CC4CCC4)[C@H](C2)[C@]1(OC)CCC(=O)C3 [TR-5296, 17-Cyclobutylmethyl-3,14-dimethoxymorphinan-6-one Hydrochloride] | – | pure analgesics | 0.77 | 1A | –
11 | COc1ccc2c(c1)[C@]13CCN(CC4CC4)[C@H](C2)[C@]1(OC)CCC(=O)C3 [TR-5305, 17-Cyclopropylmethyl-3,14-dimethoxymorphinan-6-one] | – | mixed analgesic (agonist) and narcotic antagonist activity | 0.98 | – | AD50 (Test B, narcotic antagonist activity) [2, 7]: 1.60 mg/kg
12 | CO[C@@]12CCC(=O)C[C@@]13CCN(CC1CCC1)[C@@H]2Cc1ccc(O)cc13 [TR-5306, 17-Cyclobutylmethyl-3-hydroxy-14-methoxymorphinan-6-one Hydrochloride] | – | pure analgesics | 0.007 | IA | –
13 | CO[C@@]12[C@H](C)CC(=O)C[C@@]13CCN(CC=C(C)C)[C@@H]2Cc1ccc(O)cc13.Cl [TR-5310, 17-Dimethylallyl-3-hydroxy-14-methoxy-8α-methylmorphinan-6-one Hydrochloride] | – | pure analgesics | 0.18 | IA | –
14 | CO[C@@]12CCC(=O)C[C@@]13CCN(CC1CC1)[C@@H]2Cc1ccc(O)cc13.Cl [TR-5325, 17-Cyclopropylmethyl-3-hydroxy-14-methoxymorphinan-6-one Hydrochloride] | 0.35 | – | 0.45 | – | agonist/antagonist profile ([3]; Hydrochloride): mixed analgesic (agonist) and narcotic antagonist activity
15 | COc1ccc2c(c1)[C@]13CCN(CC4CCCO4)[C@H](C2)[C@]1(OC)CCC(=O)C3.Cl (stereo partly shown) [TR-5326, 3,14-Dimethoxy-17-tetrahydrofurfurylmorphinan-6-one Hydrochloride] | – | pure analgesics | 0.16 | IA | –
16 | COc1ccc2c(c1)[C@]13CCN(CC4CCCO4)[C@H](C2)[C@]1(OC)[C@H](C)CC(=O)C3.Cl (stereo partly drawn) [TR-5327, 17-Tetrahydrofurfuryl-3,14-dimethoxy-8α-methylmorphinan-6-one Hydrochloride] | – | pure analgesics | 1.85 | IA | –
17 | CO[C@@]12CCC(=O)C[C@@]13CCN(CC1CCCO1)[C@@H]2Cc1ccc(O)cc13 (stereo partly shown) [TR-5340, 3-Hydroxy-14-methoxy-17-tetrahydrofurfurylmorphinan-6-one] | – | pure analgesics | 0.03 | IA | –
18 | COc1ccc2c(c1)[C@]13CCN(CC4CC4)[C@H](C2)[C@]1(OC)CCC(=O)C3 [TR-5400, 17-Cyclopropylmethyl-3,14-dimethoxymorphinan-6-one] | – | – | – | – | ED50 (Test A, acetic acid mouse writhing test) ([1]; subcutaneous, 15 min before acetic acid, dose reducing writhes by 50%): 0.89 mg/kg; AD50 (Test B, narcotic antagonist activity) [2, 7]: 0.64 mg/kg
19 | C[C@H]1[C@H]2Cc3ccc(O)cc3[C@]1(C)CCN2CC1CC1 [cyclazocine] | – | – | – | – | analgesic / narcotic antagonist activity (literature) [4]: mixed analgesic/narcotic antagonist activity
